Results published in US20090018162A1, “USE OF 6-(3-CHLORO-2-FLUOROBENZYL)-1-[(2S)-1-HYDROXY-3-METHYLBUTAN-2-YL]-7-METHOXY-4-OXO-1,4-DIHYDROQUINOLINE-3-CARBOXYLIC ACID OR SALT THEREOF FOR TREATING RETROVIRUS INFECTION” (priority 2006, published 2009).
pIC50: −log10 of the molar value. Counter-ions that a name gives are not always drawn. Like-named read-outs stand apart in the source and are kept apart here.

Experiments:
[1] = test system: HIV-1 clinical isolates; assay: microbe, parasite or virus in culture; settings: Human immunodeficiency virus 1, PBMC
[2] = test system: HIV-2 CDC 310319; assay: microbe, parasite or virus in culture; settings: Human immunodeficiency virus 2, PBMC
[3] = MTS cytotoxicity in monocyte/macrophage cultures; format: cell-based; settings: human
Experimental: (§1) Anti-HIV Efficacy Evaluation in Fresh Human Monocyte/Macrophage. Monocytes/macrophages were allowed to adhere to the interior 60 wells of a 96 well flat bottomed plate for 2 to 18 hours at 37° C., 5% CO2. Following 6 to 14 days in culture, the monocyte/macrophage cultures were washed 3 times to remove any non-adherent cells and serially diluted test compounds were added followed by the addition of a pre-titered amount of HIV. Cultures were washed a final time by media removal 24 hours post infection, fresh compound added and the cultures continued for an additional six days. […] At assay termination, virus replication was measured by collecting cell-free supernatant samples which were analyzed for HIV p24 antigen content using a commercially available p24 ELISA assay (Coulter). […] MTS staining for PBMC viability to measure cytotoxicity. […] The mitochondrial enzymes of metabolically active cells metabolize MTS to yield a soluble formazan product. This allows the rapid quantitative analysis of cell viability and compound cytotoxicity. […] At termination of the assay, 20 μL of MTS reagent was added per well. The microtiter plates were then incubated 4-6 hrs at 37° C. The incubation intervals were chosen based on empirically determined times for optimal dye reduction. […] Data analysis.

[4] = test system: human PBMCs; settings: 7 days
[5] = test system: drug-resistant HIV-1 isolates; assay: Anti-HIV efficacy in fresh human PBMCs, drug-resistant HIV-1 isolates; settings: for pIC50: Human immunodeficiency virus 1, PBMC, in Homo sapiens
[6] = test system: HIV-1 macrophage-tropic virus strains
[7] = MTS staining for PBMC viability (cytotoxicity); settings: human
[8] = test system: human PBMCs; assay: MTS staining for PBMC viability (cytotoxicity); settings: read-out: TC50, PBMCs, MTS
[9] = test system: HIV-1 macrophage-tropic virus strains; assay: microbe, parasite or virus in culture
[10] = test system: HIV-1 clinical isolates
[11] = test system: human monocytes/macrophages; assay: MTS cytotoxicity in monocyte/macrophage cultures; format: cell-based; settings: 7 days
Experimental: as §1

[12] = test system: HIV-2 CDC 310319; settings: HIV-2 CDC 310319 in PBMCs
[13] = in vitro; settings: human
[14] = test system: recombinant HIV-1 clones (patient protease/RT sequences in HIV-1 NL4-3); assay: microbe, parasite or virus in culture; format: cell-based
[15] = HIV-1 96USHIPS7 (subtype /B, R5) in PBMCs
[16] = HIV-1 BR/92/021 (subtype B/B, R5) in PBMCs
[17] = HIV-1 BR/93/017 (subtype B/B, R5) in PBMCs
[18] = HIV-1 BR/93/020 (subtype F/F, R5/X4) in PBMCs
[19] = HIV-1 BR/93/022 (subtype /B, R5) in PBMCs
[20] = HIV-1 CMU 02 (subtype /EA, X4) in PBMCs
[21] = HIV-1 JV 1083 (subtype /G, R5) in PBMCs
[22] = HIV-1 RW/92/016 (subtype A/A, R5) in PBMCs
[23] = HIV-1 UG/92/046 (subtype D/D, X4) in PBMCs
[24] = HIV-1 52-52 (protease-inhibitor resistant) in PBMCs
[25] = against several viruses (e.g., MDR 1385, MDR 3761) in PBMCs
[26] = multi-drug-resistant HIV-1 MDR 769 in PBMCs
[27] = multi-drug-resistant HIV-1 MDR 807 in PBMCs
[28] = multi-drug-resistant HIV-1 MDR 1385 in PBMCs
[29] = multi-drug-resistant HIV-1 MDR 3761 in PBMCs

Molecule: O=C1Nc2ccc(Cl)cc2[C@@](C#CC2CC2)(C(F)(F)F)O1 [Efavirenz, efavirenz]
- pIC50 [1, 15]: 9.19
- pIC50 [1, 16]: 7.33
- pIC50 [1, 17]: 9.24
- pIC50 [1, 18]: 9.49
- pIC50 [1, 19]: 9.21
- pIC50 [1, 20]: 8.74
- pIC50 [1, 21]: 9.19
- pIC50 [1, 22]: 9.21
- pIC50 [1, 23]: 8.92
- pIC50 [2]: < 6.00
- CC50 at 7 days ([3]; fresh adherent monocyte/macrophage cultures, HIV-infected, macrophages, ADA assay, MTS, read-out: TC50): > 10000 nM
- CC50 at 7 days ([3]; fresh adherent monocyte/macrophage cultures, HIV-infected, macrophages, Ba-L assay, MTS, read-out: TC50): > 10000 nM
- CC50 [4]: > 1000 nM
- TI (TC50/IC50) ([5]; HIV-1 52-52 in PBMCs): >9901.0
- TI (TC50/IC50) ([5]; HIV-1 144-44 in PBMCs): >1666.7
- TI (TC50/IC50) ([5]; HIV-1 1002-60 in PBMCs): >4761.9
- TI (TC50/IC50) ([5]; HIV-1 1064-52 in PBMCs): >3448.3
- TI (TC50/IC50) ([5]; HIV-1 MDR 769 in PBMCs): >1851.9
- TI (TC50/IC50) ([5]; HIV-1 MDR 807 in PBMCs): >1408.5
- pIC50 [5, 24]: > 10.00
- pIC50 [5, 25]: < 6.00
- pIC50 [5, 26]: 9.27
- pIC50 [5, 27]: 9.15
- pIC50 [5, 28]: < 6.00
- pIC50 [5, 29]: < 6.00
- TI (TC50/IC50) ([6]; HIV-1 ADA in macrophages): >2793.3
- TI (TC50/IC50) ([6]; HIV-1 Ba-L in macrophages): >4717.0
- CC50 at 7 days [7]: > 1000 nM
- CC50 ([8]; 52-52 assay): > 1000 nM
- CC50 ([8]; 144-44 assay): > 1000 nM
- CC50 ([8]; 1002-60 assay): > 1000 nM
- CC50 ([8]; 1064-52 assay): > 1000 nM
- CC50 ([8]; BFC01 assay): > 1000 nM
- CC50 ([8]; BR/92/021 assay): > 1000 nM
- CC50 ([8]; BR/92/025 assay): > 1000 nM
- CC50 ([8]; BR/93/017 assay): > 1000 nM
- CC50 ([8]; BR/93/020 assay): > 1000 nM
- CC50 ([8]; BR/93/022 assay): > 1000 nM
- CC50 ([8]; CMU 02 assay): > 1000 nM
- CC50 ([8]; HIV-2 CDC 310319 assay): > 1000 nM
- CC50 ([8]; JV 1083 assay): > 1000 nM
- CC50 ([8]; RW/92/016 assay): > 1000 nM
- CC50 ([8]; UG/92/046 assay): > 1000 nM
- pIC50 ([9]; Human immunodeficiency virus 1, BAL, Macrophage): 8.67
- pIC50 ([9]; Human immunodeficiency virus 1, Macrophage): 8.45
- TI (TC50/IC50) ([10]; HIV-1 96USHIPS7 in PBMCs): >1538.5
- TI (TC50/IC50) ([10]; HIV-1 BFC01 in PBMCs): >1449.3
- TI (TC50/IC50) ([10]; HIV-1 BR/92/021 in PBMCs): >21.3
- TI (TC50/IC50) ([10]; HIV-1 BR/92/025 in PBMCs): >3333.3
- TI (TC50/IC50) ([10]; HIV-1 BR/93/017 in PBMCs): >1724.1
- TI (TC50/IC50) ([10]; HIV-1 BR/93/020 in PBMCs): >3125.0
- TI (TC50/IC50) ([10]; HIV-1 BR/93/022 in PBMCs): >1612.9
- TI (TC50/IC50) ([10]; HIV-1 CMU 02 in PBMCs): >549.5
- TI (TC50/IC50) ([10]; HIV-1 JV 1083 in PBMCs): >1538.5
- TI (TC50/IC50) ([10]; HIV-1 RW/92/016 in PBMCs): >1639.3
- TI (TC50/IC50) ([10]; HIV-1 UG/92/046 in PBMCs): >840.3

Molecule: Cc1c(O)cccc1C(=O)N[C@@H](CSc1ccccc1)[C@H](O)CN1C[C@H]2CCCC[C@H]2C[C@H]1C(=O)NC(C)(C)C [Nelfinavir, nelfinavir mesylate]
- pIC50 [1, 15]: 7.59
- pIC50 [1, 16]: 7.15
- pIC50 [1, 17]: 8.69
- pIC50 [1, 18]: 7.79
- pIC50 [1, 19]: 7.70
- pIC50 [1, 20]: 7.64
- pIC50 [1, 21]: 7.85
- pIC50 [1, 22]: 7.87
- pIC50 [1, 23]: 7.56
- pIC50 [2]: 7.79
- CC50 at 7 days ([3]; TC50): > 10000 nM
- CC50 [11]: > 10000 nM
- CC50 [4]: > 1000 nM
- TI (TC50/IC50) ([5]; HIV-1 52-52 in PBMCs): >10.5
- TI (TC50/IC50) ([5]; HIV-1 144-44 in PBMCs): >6.05
- TI (TC50/IC50) ([5]; HIV-1 1064-52 in PBMCs): >1.19
- TI (TC50/IC50) ([5]; HIV-1 MDR 807 in PBMCs): >7.41
- pIC50 [5, 24]: 7.02
- pIC50 [5, 25]: < 6.00
- pIC50 [5, 26]: < 6.00
- pIC50 [5, 27]: 6.87
- pIC50 [5, 28]: < 6.00
- pIC50 [5, 29]: < 6.00
- TI (TC50/IC50) [12]: >62.1
- TI (TC50/IC50) ([6]; HIV-1 ADA in macrophages): >221.2
- TI (TC50/IC50) ([6]; HIV-1 Ba-L in macrophages): >275.5
- CC50 ([8]; MDR 807 assay): > 1000 nM
- CC50 ([8]; MDR 1385 assay): > 1000 nM
- CC50 ([8]; MDR 3761 assay): > 1000 nM
- CC50 [13]: > 1000 nM
- CC50 at 7 days [13]: > 1000 nM
- pIC50 ([9]; Human immunodeficiency virus 1, BAL, Macrophage, in Homo sapiens, HIV-1 Ba-L in macrophages): 7.44
- pIC50 ([9]; Human immunodeficiency virus 1, Macrophage, in Homo sapiens, HIV-1 ADA in macrophages): 7.34
- TI (TC50/IC50) ([10]; HIV-1 96USHIPS7 in PBMCs): >38.8
- TI (TC50/IC50) ([10]; HIV-1 BFC01 in PBMCs): >1010.1
- TI (TC50/IC50) ([10]; HIV-1 BR/92/021 in PBMCs): >14.2
- TI (TC50/IC50) ([10]; HIV-1 BR/92/025 in PBMCs): >9901.0
- TI (TC50/IC50) ([10]; HIV-1 BR/93/017 in PBMCs): >487.8
- TI (TC50/IC50) ([10]; HIV-1 BR/93/020 in PBMCs): >61.0
- TI (TC50/IC50) ([10]; HIV-1 BR/93/022 in PBMCs): >49.8
- TI (TC50/IC50) ([10]; HIV-1 CMU 02 in PBMCs): >44.1
- TI (TC50/IC50) ([10]; HIV-1 JV 1083 in PBMCs): >71.4
- TI (TC50/IC50) ([10]; HIV-1 RW/92/016 in PBMCs): >74.6
- TI (TC50/IC50) ([10]; HIV-1 UG/92/046 in PBMCs): >36.1

Molecule: C[C@H](Cn1cnc2c(N)ncnc21)OCP(=O)(O)O [TFV, Tenofovir]
- Fold-increase (EC50 fold increase above reference clone NL4-3) ([14]; RT mutation 2-5 TAMs, K65 and/or Q151, N=4, averaged): 8.5
- Fold-increase (EC50 fold increase above reference clone NL4-3) ([14]; RT mutation 2-5 TAMs, N=16, averaged): 3.5
- Fold-increase (EC50 fold increase above reference clone NL4-3) ([14]; RT mutation 2-5 TAMs, T69ins, N=4, averaged): 12.2
- Fold-increase (EC50 fold increase above reference clone NL4-3) ([14]; RT mutation 6 TAMS, M184, N=7, averaged): 1.6
- Fold-increase (EC50 fold increase above reference clone NL4-3) ([14]; RT mutation 6 TAMs, N=5, averaged): 5.0
- Fold-increase (EC50 fold increase above reference clone NL4-3) ([14]; RT mutation K65 and/or Q151, M184, N=12, averaged): 2.2
- Fold-increase (EC50 fold increase above reference clone NL4-3) ([14]; RT mutation K65 and/or Q151, N=7, averaged): 4.0
- Fold-increase (EC50 fold increase above reference clone NL4-3) ([14]; RT mutation M184, N=12, averaged): 0.6
- Fold-increase (EC50 fold increase above reference clone NL4-3) ([14]; Wild-type clones, N=8, averaged): 0.8

Molecule: enfuvirtide
- CC50 [4]: > 10000 nM
- CC50 at 7 days [13]: > 10000 nM
